Converted amounts (≈) assume the structure as drawn. One block for each compound: values may come before it. The source made the active and inactive calls. The calls are words filed in the database; no cut-off is given here.
Columns and labels:
HEK293 = test: Cytotoxicity against HEK293 cells expressing LgBiT fused HiBiT-BRD2 measured after 24 hrs by cell titer-glo assay; type: toxicity, cell-based; details: human, hek293, 24 h
[1] = Effect on CCNF level in human MV4-11 cells assessed as fold change at 100 nM measured after 4 hrs; type: functional
[2] = molecular target: T1, Protein cereblon/Bromodomain-containing protein 4 (Homo sapiens, UniProt O60885+Q96SW2); test: PROTAC activity at CRBN/Hibit-tagged BRD4 (unknown origin) expressed in HEK293 cells co-expressing LgBiT assessed as degradation of BRD4 incubated for 24 hrs by […] glo-max assay; type: cell-based
[3] = molecular target: T1, Protein cereblon/Bromodomain-containing protein 4; test: PROTAC activity at CRBN/Hibit-tagged BRD4 (unknown origin) expressed in HEK293 cells co-expressing LgBiT assessed as degradation rate incubated for 24 hrs by […] glo-max assay; type: cell-based
[4] = Permeability in MDCK-II cells incubated for 1 hr by UPLC/MS/UV analysis; type: ADME, cell-based, Canis lupus familiaris; details: dog, read-out: permeability
[5] = Effect on NSA2 level in human MV4-11 cells assessed as fold change at 100 nM measured after 4 hrs; type: functional
HD-MB03 = test: Cytotoxicity against human HD-MB03 cells assessed as reduction in cell viability incubated for 72 hrs by cell-titer glo assay; type: functional, cell-based; details: HD-MB03, 72 h
[6] = molecular target: Protein cereblon/Bromodomain-containing protein 4/DNA damage-binding protein 1 (Homo sapiens) (UniProt O60885+Q96SW2+Q16531); test: Binding affinity to his-tagged CRBN/DDB1/GST-tagged BRD4 (49 to 170 residues)(unknown origin) assessed as ternary complex formation (AUC) incubated for 1 hr by luminescence based Alphascreen assay; type: protein assay
[7] = molecular target: T2, Protein cereblon/Bromodomain-containing protein 3 (Homo sapiens) (UniProt Q15059+Q96SW2); test: PROTAC activity at CRBN/Hibit-tagged CRISPR BRD3 (unknown origin) expressed in HEK293 cells co-expressing LgBiT assessed as degradation of BRD3 measured after 13 to 16 hrs by […] glo-max assay; type: cell-based; details: time 13-16 hrs
[8] = molecular target: Protein cereblon (Homo sapiens) (UniProt Q96SW2); test: Binding affinity to CRBN (unknown origin)
[9] = Effect on BRD3 level in human MV4-11 cells assessed as fold change at 100 nM measured after 4 hrs; type: functional
[10] = Effect on TP53 level in human MV4-11 cells assessed as fold change at 100 nM measured after 4 hrs; type: functional
MV4-11 = test: Cytotoxicity against human MV4-11 cells assessed as reduction in cell viability incubated for 72 hrs by cell-titer glo assay; type: functional, cell-based; details: MV4-11, 72 h
[11] = molecular target: T2, Protein cereblon/Bromodomain-containing protein 3 (Homo sapiens); test: PROTAC activity at CRBN/Hibit-tagged CRISPR BRD3 (unknown origin) expressed in HEK293 cells co-expressing LgBiT assessed as degradation of BRD3 by […] glo-max assay; type: cell-based
[12] = Effect on ZFP36L2 level in human MV4-11 cells assessed as fold change at 100 nM measured after 4 hrs; type: functional
[13] = Effect on CCND3 level in human MV4-11 cells assessed as fold change at 100 nM measured after 4 hrs; type: functional
[14] = Effect on NOP53 level in human MV4-11 cells assessed as fold change at 100 nM measured after 4 hrs; type: functional
[15] = Effect on ZBTB21 level in human MV4-11 cells assessed as fold change at 100 nM measured after 4 hrs; type: functional
[16] = Metabolic stability in mouse liver microsomes assessed as half life; type: ADME, Microsome; details: for half-life: liver microsomes
[17] = molecular target: T3, Protein cereblon/Bromodomain-containing protein 2 (Homo sapiens) (UniProt P25440+Q96SW2); test: PROTAC activity at CRBN/Hibit-tagged CRISPR BRD2 (unknown origin) expressed in HEK293 cells coexpressing LgBiT assessed as degradation of BRD2 measured after 10 to 14 hrs by […] glo-max assay; type: cell-based; details: time 10-14 hrs
[18] = Effect on BRD2 level in human MV4-11 cells assessed as fold change at 100 nM measured after 4 hrs; type: functional
[19] = Effect on BRD4 level in human MV4-11 cells assessed as fold change at 100 nM measured after 4 hrs; type: functional
[20] = Effect on CDC42EP3 level in human MV4-11 cells assessed as fold change at 100 nM measured after 4 hrs; type: functional
[21] = molecular target: T1, Protein cereblon/Bromodomain-containing protein 4; test: PROTAC activity at CRBN/Hibit-tagged CRISPR BRD4 (unknown origin) expressed in HEK293 cells co-expressing LgBiT assessed as degradation of BRD4 by […] glo-max assay relative to control; type: cell-based
[22] = molecular target: T1, Protein cereblon/Bromodomain-containing protein 4; test: PROTAC activity at CRBN/Hibit-tagged CRISPR BRD4 (unknown origin) expressed in HEK293 cells co-expressing LgBiT assessed as degradation of BRD4 measured after 18 to 24 hrs by […] glo-max assay; type: cell-based; details: time 18-24 hrs
[23] = molecular target: T1, Protein cereblon/Bromodomain-containing protein 4; test: PROTAC activity at CRBN/Hibit-tagged CRISPR BRD4 (unknown origin) expressed in HEK293 cells co-expressing LgBiT assessed as degradation of BRD4 by […] glo-max assay; type: cell-based
[24] = Effect on FGL2 level in human MV4-11 cells assessed as fold change at 100 nM measured after 4 hrs; type: functional
[25] = Effect on MYC level in human MV4-11 cells assessed as fold change at 100 nM measured after 4 hrs; type: functional
[26] = molecular target: T1, Protein cereblon/Bromodomain-containing protein 4; test: PROTAC activity at CRBN/Hibit-tagged BRD4 (unknown origin) expressed in HEK293 cells co-expressing LgBiT assessed as degradation of BRD4 incubated for 24 hrs by […] glo-max assay relative to control; type: cell-based
[27] = molecular target: T3, Protein cereblon/Bromodomain-containing protein 2 (Homo sapiens); test: PROTAC activity at CRBN/Hibit-tagged CRISPR BRD2 (unknown origin) expressed in HEK293 cells coexpressing LgBiT assessed as degradation of BRD2 by […] glo-max assay; type: cell-based
[28] = Effect on RNF166 level in human MV4-11 cells assessed as fold change at 100 nM measured after 4 hrs; type: functional
[29] = Effect on PLK1 level in human MV4-11 cells assessed as fold change at 100 nM measured after 4 hrs; type: functional
[30] = Kinetic aqueous solubility of the compound at pH 7.4; type: physicochemical; details: read-out: Kinetic_solubility
[31] = molecular target: T3, Protein cereblon/Bromodomain-containing protein 2 (Homo sapiens); test: PROTAC activity at CRBN/Hibit-tagged CRISPR BRD2 (unknown origin) expressed in HEK293 cells coexpressing LgBiT assessed as degradation of BRD2 by […] glo-max assay relative to control; type: cell-based
[32] = Effect on AURKA level in human MV4-11 cells assessed as fold change at 100 nM measured after 4 hrs; type: functional
[33] = Effect on MCL1 level in human MV4-11 cells assessed as fold change at 100 nM measured after 4 hrs; type: functional
[34] = Stability in mouse plasma assessed as half life by UPLC-MS/MS analysis; type: ADME, cell-free
[35] = Effect on FYTTD1 level in human MV4-11 cells assessed as fold change at 100 nM measured after 4 hrs; type: functional
[36] = Effect on PLAU level in human MV4-11 cells assessed as fold change at 100 nM measured after 4 hrs; type: functional
[37] = molecular target: T2, Protein cereblon/Bromodomain-containing protein 3 (Homo sapiens); test: PROTAC activity at CRBN/Hibit-tagged CRISPR BRD3 (unknown origin) expressed in HEK293 cells co-expressing LgBiT assessed as degradation of BRD3 by […] glo-max assay relative to control; type: cell-based
[38] = AUC last in female CD1 mouse at 10 mg/kg, po measured upto 24 hrs by LC-MS/MS analysis; type: ADME, organism-based; details: in vivo
[39] = Permeability in human MV4-11 cells assessed as cell availability index relative to lenalidomide; type: ADME, cell-based
[40] = Cmax in female CD1 mouse at 10 mg/kg, po measured upto 24 hrs by LC-MS/MS analysis; type: ADME, organism-based; details: in vivo

DC50 [2]: 0.58 nM | Activity [3]: 0.201 fRLU/hr | Papp at 1 h [4]: 3.4 ×10⁻⁶ cm/s | Activity [7]: Active | Activity [8]: Active | Activity [11]: Active | half-life [16]: 0.75 h | Activity [17]: Active | Activity [21]: > 90% | Activity [22]: Active | Activity [23]: Active | Emax [26]: 96.6% | Activity [27]: Active | solubility kinetic [30]: 48.4 µM (≈ 39.1 µg/mL) | Activity [31]: > 95% | half-life [34]: 29.8 h | Activity [37]: > 95%
SMILES: Cc1sc2c(c1C)C(c1ccc(Cl)cc1)=N[C@@H](CC(=O)N1CCC(CN3CCN(c4ccc5c(c4)CN(C4CCC(=O)NC4=O)C5=O)CC3)CC1)c1nnc(C)n1-2 (some centres undefined)
Activity (HEK293): Non-toxic | fold change (FC) [1]: -1.47 | fold change (FC) [5]: -1.06 | IC50 (HD-MB03): 1.56 nM | Activity [6]: Active | fold change (FC) [9]: -3.9 | fold change (FC) [10]: 1.87 | IC50 (MV4-11): 0.14 nM | fold change (FC) [12]: -1 | fold change (FC) [13]: -0.97 | fold change (FC) [14]: -0.82 | fold change (FC) [15]: -0.1 | fold change (FC) [18]: -2.91 | fold change (FC) [19]: -3.57 | fold change (FC) [20]: -1.25 | fold change (FC) [24]: -1.05 | fold change (FC) [25]: -1.72 | fold change (FC) [28]: -0.92 | fold change (FC) [29]: -0.78 | fold change (FC) [32]: -0.9 | fold change (FC) [33]: -1.06 | fold change (FC) [35]: -1.54 | fold change (FC) [36]: -1.05

DC50 [2]: 0.57 nM | Activity [3]: 0.343 fRLU/hr | Papp at 1 h [4]: 0.95 ×10⁻⁶ cm/s | Activity [7]: Active | Activity [8]: Active | AUC(0-t) at 24 h [38]: 97 ng·h/mL | Activity [11]: Active | Ratio [39]: 3.7 | half-life [16]: 2.17 h | t1/2 ([16]; microsomes): 2.17 h | Activity [17]: Active | Activity [21]: > 90% | Activity [22]: Active | Activity [23]: Active | Cmax [40]: 23 ng/mL | Emax [26]: 96.9% | Activity [27]: Active | solubility kinetic [30]: 74.5 µM (≈ 61.3 µg/mL) | Activity [31]: > 95% | half-life [34]: 68.4 h | Activity [37]: > 95%
SMILES: Cc1sc2c(c1C)C(c1ccc(Cl)cc1)=N[C@@H](CC(=O)N1CCC(CN3CCN(c4ccc5c(c4)n(C)c(=O)n5C4CCC(=O)NC4=O)CC3)CC1)c1nnc(C)n1-2 (some centres undefined)
Activity (HEK293): Non-toxic | fold change (FC) [1]: -2.01 | fold change (FC) [5]: -1.12 | IC50 (HD-MB03): 0.56 nM | Activity [6]: Active | fold change (FC) [9]: -4.26 | fold change (FC) [10]: 1.88 | IC50 (MV4-11): 0.03 nM | fold change (FC) [12]: -1.03 | fold change (FC) [13]: -0.86 | fold change (FC) [14]: -0.87 | fold change (FC) [15]: -0.13 | fold change (FC) [18]: -3.63 | fold change (FC) [19]: -3.81 | fold change (FC) [20]: -1.05 | fold change (FC) [24]: -0.86 | fold change (FC) [25]: -2.43 | fold change (FC) [28]: -0.24 | fold change (FC) [29]: -0.76 | fold change (FC) [32]: -1.01 | fold change (FC) [33]: -1.19 | fold change (FC) [35]: -1.69 | fold change (FC) [36]: -1.08

— ChEMBL document CHEMBL6121036, “Evaluation of Cereblon-Directing Warheads for the Development of Orally Bioavailable PROTACs” (J Med Chem, 2025)
